Measured values as given in patent US12404285B2, “KRAS G12D proteolysis targeting chimeras” (PAQ Therapeutics Inc., priority 2022, dated 2025).

Biological target: T1, KRAS (G12D)-HiBit in AsPc-1-KRAS (G12D)-HiBit-KI cell (Homo sapiens, UniProt P01116, G12D)
T1 construct: host or cells: AsPc-1-KRAS (G12D)-HiBit-KI cells (knock-in line)
Assay: G12D HiBit assay
Assay type: cell-based
Settings: 24 hours compound treatment, absolute DC50, read-out: Average PHA DC50
Procedure: Day 1. Prepared the culture medium for AsPc-1-KRAS (G12D)-HiBit-KI cell (Pharmaron) using RPMI 1640 medium (Gibco, 11875093) with 10% FBS (Gibco, 10099141C) and 1% Penicillin-Streptomycin Liquid (Solarbio, P1400). Cultivated cells in T-75 flasks in a cell culture incubator (Thermo, Model: 371) at 37° C., 5% CO2. Allowed cells to reach approximately 80% confluence before splitting. Rinsed cultivated cells in T-75 flasks with 5 mL PBS (Solarbio, P1020-500). Aspirated off PBS, added 1.5 mL trypsin (Invitrogen, #25300), and incubated at 37° C. for approximately 5 minutes or until the cells detached. Inactivated trypsin by adding excessive serum containing medium. Harvested the cells from flask into cell culture medium and counted the cell number. Seeded AsPc-1-KRAS (G12D)-HiBit-KI cell into 384-well plate (Corning, 3570) (cell density: 5×10^3 cells/well in 50 μL medium) in RPMI 1640 medium and incubated overnight at 37° C. and 5% CO2.
Day 2. Test compounds were dissolved at 0.3 mM in DMSO (Solarbio, D8371) as stock solution. Transferred 45 μL of stock solution to a 384-well plate (Labcyte, 001-14555). Performed 3-fold, 10-points dilution via transferring 15 μL compound into 30 μL DMSO by using TECAN liquid handler (TECAN, Freedom EVO200). The compound plates were spin at room temperature at 1,000 RPM for 1 minute (Eppendorf, 5810R). Transferred 50 nL of diluted compounds from compound source plate into the cell plate by Echo (Labcyte, 550) to achieve final concentrations of 300 nM, 100 nM, 33.3 nM, 11.1 nM, 3.7 nM, 1.23 nM, 0.41 nM, 0.14 nM, 0.046 nM and 0.015 nM, then mixed the cell plate on a plate shaker (Yoning, WZ-4) for 15 seconds at 900 rpm. After compound treatment for 24 hours, removed the plate from incubators and equilibrated at room temperature for 15 minutes. Prepared the HiBit reagent (Promega, N3040) by mixing 10 mL of Nano-Glo®-HiBiT Lytic Buffer with 200 μL of Nano-Glo®-HiBiT Lytic Substrate and 100 μL of LgBiT Protein. Added 20 μL of HiBit reagent into each well of the cell plate and spun the plates at room temperature at 1,000 RPM for 1 minute. Then shook the plates at 600 RPM at room temperature for 20 minutes using a plate shaker (Yoning, WZ-4), and read the luminescence by EnVision (PerkinElmer, 2105-0020).
The inhibition activity was calculated using the following formula: HiBit-G12D level (%)=100%×[Luminescence(Sample)/Mean of Luminescence (HC)] where HC (high control) is obtained from cells treated with 0.1% DMSO only.
Absolute DC50 was calculated by fitting the curve using GraphPad Prism v8.0.2 (analyis 263): Y=Bottom+(100−Bottom)/(1+10^(Log AbsoluteIC50−X)*HillSlope+log((100−Bottom)/(50−Bottom)−1)))
The data are reported in Table 3, wherein “+++”=DC50 less than 100 nM, “++”=DC50 greater than or equal to 100 nM and less than 300 nM; “+”=DC50 greater than or equal to 300 nM.

T1 sequence (P01116 1-188 isoform P01116-2 G12D): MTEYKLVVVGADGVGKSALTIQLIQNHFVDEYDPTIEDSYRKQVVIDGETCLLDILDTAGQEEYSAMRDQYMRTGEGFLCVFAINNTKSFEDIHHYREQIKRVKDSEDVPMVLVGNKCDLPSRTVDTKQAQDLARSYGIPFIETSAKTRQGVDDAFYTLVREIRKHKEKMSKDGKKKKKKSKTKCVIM

| SMILES | DC50 |
| --- | --- |
| C#Cc1c(F)ccc2cccc(-c3ncc4c(N5CC6CCC(C5)N6)nc(OC[C@@]56CCCN5[C@H](COC(=O)NCCCC(=O)N5CCC(c7ccc8c(c7)n(C)c(=O)n8C7CCC(=O)NC7=O)CC5)CC6)nc4c3F)c12 (stereo partly shown) [Compound 45] | ≥ 300 nM |
| C#Cc1c(F)ccc2cccc(-c3ncc4c(N5CC6CCC(C5)N6)nc(OC[C@@]56CCCN5[C@H](COC(=O)N5CCC7(CC5)CN(CC#Cc5cccc8c5n(C)c(=O)n8C5CCC(=O)NC5=O)CCO7)CC6)nc4c3F)c12 (stereo partly shown) [Compound 46] | ≥ 300 nM |
| C#Cc1c(F)ccc2cccc(-c3ncc4c(N5CC6CCC(C5)N6)nc(OC[C@@]56CCCN5[C@H](COC(=O)N5CCC(CC7CCN(Cc8ccc9c(c8)n(C)c(=O)n9C8CCC(=O)NC8=O)CC7)CC5)CC6)nc4c3F)c12 (stereo partly shown) [Compound 47] | < 100 nM |
| C#Cc1c(F)ccc2cccc(-c3ncc4c(N5CC6CCC(C5)N6)nc(OC[C@@]56CCCN5[C@H](COC(=O)N5CCC(CC7CCN(c8cccc9c8n(C)c(=O)n9C8CCC(=O)NC8=O)CC7)CC5)CC6)nc4c3F)c12 (stereo partly shown) [Compound 48] | ≥ 300 nM |
| C#Cc1c(F)ccc2cccc(-c3ncc4c(N5CC6CCC(C5)N6)nc(OC[C@@]56CCCN5[C@H](COC(=O)N5CCC(CCC7CCN(Cc8cccc9c8n(C)c(=O)n9C8CCC(=O)NC8=O)CC7)CC5)CC6)nc4c3F)c12 (stereo partly shown) [Compound 49] | ≥ 300 nM |
| C#Cc1c(F)ccc2cccc(-c3ncc4c(N5CC6CCC(C5)N6)nc(OC[C@@]56CCCN5[C@H](COC(=O)N5CCC(OCCC#Cc7ccc8c(c7)n(C)c(=O)n8C7CCC(=O)NC7=O)CC5)CC6)nc4c3F)c12 (stereo partly shown) [Compound 50] | < 100 nM |
| C#Cc1c(F)ccc2cccc(-c3ncc4c(N5CC6CCC(C5)N6)nc(OC[C@@]56CCCN5[C@H](COC(=O)N5CCC(C7CCN(Cc8cccc9c8n(C)c(=O)n9C8CCC(=O)NC8=O)CC7)CC5)CC6)nc4c3F)c12 (stereo partly shown) [Compound 51] | < 100 nM |
| C#Cc1c(F)ccc2cccc(-c3ncc4c(N5CC6CCC(C5)N6)nc(OC[C@@]56CCCN5[C@H](COC(=O)N5CCC(OC7CCN(Cc8ccc9c(c8)n(C)c(=O)n9C8CCC(=O)NC8=O)CC7)CC5)CC6)nc4c3F)c12 (stereo partly shown) [Compound 52] | < 100 nM |
| C#Cc1c(F)ccc2cccc(-c3ncc4c(N5CC6CCC(C5)N6)nc(OC[C@@]56CCCN5[C@H](COC(=O)N5CCC(N7CCN(Cc8cccc9c8n(C)c(=O)n9C8CCC(=O)NC8=O)CC7)CC5)CC6)nc4c3F)c12 (stereo partly drawn) [Compound 53, [(3S,8S)-8-[[4-(3,8-diazabicyclo [3.2.1]octan-3-yl)-7-(8-ethynyl-7-fluoro-1-naphthyl)-8-fluoro-pyrido[4,3-d]pyrimidin-2-yl]oxymethyl]-1,2,3,5,6,7-hexahydropyrrolizin-3-yl]methyl4-[4-[[1-(2,6-dioxo-3-piperidyl)-3-methyl-2-oxo-benzimidazol-4-yl]methyl]piperazin-1-yl]piperidine-1-carboxylate] | < 100 nM |
| C#Cc1c(F)ccc2cccc(-c3ncc4c(N5CC6CCC(C5)N6)nc(OC[C@@]56CCCN5[C@H](COC(=O)N5CCC(OC7CN(Cc8cccc9c8n(C)c(=O)n9C8CCC(=O)NC8=O)C7)CC5)CC6)nc4c3F)c12 (stereo partly drawn) [Compound 54, [(3S,8S)-8-[[4-(3,8-Diazabicyclo[3.2.1]octan-3-yl)-7-(8-ethynyl-7-fluoro-1-naphthyl)-8-fluoro-pyrido[4,3-d]pyrimidin-2-yl]oxymethyl]-1,2,3,5,6,7-hexahydropyrrolizin-3-yl]methyl 4-[1-[[1-(2,6-dioxo-3-piperidyl)-3-methyl-2-oxo-benzimidazol-4-yl]methyl]azetidin-3-yl]oxypiperidine-1-carboxylate] | < 100 nM |
| C#Cc1c(F)ccc2cccc(-c3ncc4c(N5CC6CCC(C5)N6)nc(OC[C@@]56CCCN5[C@H](COC(=O)N5CCC(C7CCN(Cc8ccc9c(c8)n(C)c(=O)n9C8CCC(=O)NC8=O)CC7)CC5)CC6)nc4c3F)c12 (stereo partly drawn) [Compound 55, [(3S,8S)-8-[[4-(3,8-Diazabicyclo[3.2.1]octan-3-yl)-7-(8-ethynyl-7-fluoro-1-naphthyl)-8-fluoro-pyrido[4,3-d]pyrimidin-2-yl]oxymethyl]-1,2,3,5,6,7-hexahydropyrrolizin-3-yl]methyl 4-[1-[[1-(2,6-dioxo-3-piperidyl)-3-methyl-2-oxo-benzimidazol-5-yl]methyl]-4-piperidyl]piperidine-1-carboxylate] | < 100 nM |
| C#Cc1c(F)ccc2cccc(-c3ncc4c(N5CC6CCC(C5)N6)nc(OC[C@@]56CCCN5[C@H](COC(=O)N5CCC(N7CCN(Cc8ccc9c(c8)n(C)c(=O)n9C8CCC(=O)NC8=O)CC7)CC5)CC6)nc4c3F)c12 (stereo partly drawn) [Compound 56, [(3S,8S)-8-[[4-(3,8-Diazabicyclo[3.2.1]octan-3-yl)-7-(8-ethynyl-7-fluoro-1-naphthyl)-8-fluoro-pyrido[4,3-d]pyrimidin-2-yl]oxymethyl]-1,2,3,5,6,7-hexahydropyrrolizin-3-yl]methyl 4-[4-[[1-(2,6-dioxo-3-piperidyl)-3-methyl-2-oxo-benzimidazol-5-yl]methyl]piperazin-1-yl]piperidine-1-carboxylate] | < 100 nM |
| C#Cc1c(F)ccc2cccc(-c3ncc4c(N5CC6CCC(C5)N6)nc(OC[C@@]56CCCN5[C@H](COC(=O)N5CCC(OCCCCCCc7cccc8c7n(C)c(=O)n8C7CCC(=O)NC7=O)CC5)CC6)nc4c3F)c12 (stereo partly drawn) [Compound 58, [(3S,8S)-8-[[4-(3,8-Diazabicyclo[3.2.1]octan-3-yl)-7-(8-ethynyl-7-fluoro-1-naphthyl)-8-fluoro-pyrido[4,3-d]pyrimidin-2-yl]oxymethyl]-1,2,3,5,6,7-hexahydropyrrolizin-3-yl]methyl 4-[6-[1-(2,6-dioxo-3-piperidyl)-3-methyl-2-oxo-benzimidazol-4-yl]hexoxy]piperidine-1-carboxylate] | < 100 nM |
| C#Cc1c(F)ccc2cccc(-c3ncc4c(N5CC6CCC(C5)N6)nc(OC[C@@]56CCCN5[C@H](COC(=O)N5CCC(OCCCCCCCc7cccc8c7n(C)c(=O)n8C7CCC(=O)NC7=O)CC5)CC6)nc4c3F)c12 (stereo partly shown) [Compound 59] | < 100 nM |
| C#Cc1c(F)ccc2cccc(-c3ncc4c(N5CC6CCC(C5)N6)nc(OC[C@@]56CCCN5[C@H](COC(=O)N5CCC7(CCC(CCc8cccc9c8n(C)c(=O)n9C8CCC(=O)NC8=O)CC7)CC5)CC6)nc4c3F)c12 (stereo partly drawn) [Compound 60, [(3S,8S)-8-[[4-(3,8-Diazabicyclo[3.2.1]octan-3-yl)-7-(8-ethynyl-7-fluoro-1-naphthyl)-8-fluoro-pyrido[4,3-d]pyrimidin-2-yl]oxymethyl]-1,2,3,5,6,7-hexahydropyrrolizin-3-yl]methyl 9-[2-[1-(2,6-dioxo-3-piperidyl)-3-methyl-2-oxo-benzimidazol-4-yl]ethyl]-3-azaspiro[5.5]undecane-3-carboxylate] | 100 to 300 nM |
| C#Cc1c(F)ccc2cccc(-c3ncc4c(N5CC6CCC(C5)N6)nc(OC[C@@]56CCCN5[C@H](COC(=O)N5CC7(CC(CCc8cccc9c8n(C)c(=O)n9C8CCC(=O)NC8=O)C7)C5)CC6)nc4c3F)c12 (stereo partly drawn) [Compound 61, [(3S,8S)-8-[[4-(3,8-diazabicyclo[3.2.1]octan-3-yl)-7-(8-ethynyl-7-fluoro-1-naphthyl)-8-fluoro-pyrido[4,3-d]pyrimidin-2-yl]oxymethyl]-1,2,3,5,6,7-hexahydropyrrolizin-3-yl]methyl 6-[2-[1-(2,6-dioxo-3-piperidyl)-3-methyl-2-oxo-benzimidazol-4-yl]ethyl]-2-azaspiro[3.3]heptane-2-carboxylate] | 100 to 300 nM |
